Assay results reported in patent US7317009B2, “Pyrrolopyridazine derivatives” (Astellas Pharma Inc., priority 2003, dated 2008).

Tested on: not given
Assay: not given
Details: not given

Question: For `CCc1ccc2c(-c3cccc(Cl)c3)c(C#N)c(-c3ccccc3)nn12` [Example 7, 4-(3-Chlorophenyl)-7-ethyl-2-phenylpyrrolo[1,2-b]pyridazine-3-carbonitrile], which melting point is on record?
Answer: 172 to 173 °C

Question: For `CCc1ccc2c(-c3cccc(C#N)c3)c3c(nn12)CCC3=O` [Example 10, 3-(6-Ethyl-1-oxo-2,3-dihydro-1H-cyclopenta[e]pyrrolo[1,2-b]pyridazin-9-yl)benzonitrile], which melting point is on record?
Answer: 150 to 154 °C

Question: For `CCc1ccc2c(-c3ccnc(Cl)c3)c(CCCCC(=O)O)c(C)nn12` [Example 94, 5-[4-(2-Chloro-4-pyridinyl)-7-ethyl-2-methylpyrrolo[1,2-b]pyridazin-3-yl]pentanoic acid], which melting point is on record?
Answer: 139 to 140 °C

Question: For `CCc1ccc2c(-c3cncc(Br)c3)c(CCC(=O)O)c(C)nn12` [Example 135, 3-[4-(5-Bromo-3-pyridinyl)-7-ethyl-2-methylpyrrolo[1,2-b]pyridazin-3-yl]propanoic acid], which melting point is on record?
Answer: 181 to 182 °C

Question: For `CCOC(=O)CC(=O)Cc1c(C)nn2c(Cl)ccc2c1-c1ccc(F)cc1` [Example 192, Ethyl 4-[7-chloro-4-(4-fluorophenyl)-2-methylpyrrolo[1,2-b]pyridazin-3-yl]-3-oxobutanoate], which melting point is on record?
Answer: 116 to 118 °C

Question: For `CCc1ccc2c(-c3cccc(C#N)c3)c(CCCCC(=O)Nc3ccccn3)c(-c3ccccc3)nn12` [Example 263, 5-[4-(3-Cyanophenyl)-7-ethyl-2-phenylpyrrolo[1,2-b]pyridazin-3-yl]-N-(2-pyridinyl)pentanamide], which melting point is on record?
Answer: 67 to 70 °C

Question: With `CCc1ccc2c(-c3cncc(Br)c3)c(CCCCC(=O)NS(C)(=O)=O)c(C)nn12` [Example 267, N-{5-[4-(5-Bromo-3-pyridinyl)-7-ethyl-2-methylpyrrolo[1,2-b]pyridazin-3-yl]pentanoyl}methanesulfonamide] as the compound, how does the melting point read?
Answer: 124 to 125 °C

Question: With `CCc1ccc2c(-c3cccc(C#N)c3)c(CCCCC(=O)NC)c(-c3ccccc3)nn12` [Example 278, 5-[4-(3-Cyanophenyl)-7-ethyl-2-phenylpyrrolo[1,2-b]pyridazin-3-yl]-N-methylpentanamide] as the compound, how does the melting point read?
Answer: 60 °C

Question: Which melting point does the source give for `CCc1ccc2c(-c3cccc(Cl)c3)c(CCCCC(=O)N3CCOCC3)c(-c3ccccc3)nn12` [Example 279, 4-(3-Chlorophenyl)-7-ethyl-3-[5-(4-morpholinyl)-5-oxopentyl]-2-phenylpyrrolo[1,2-b]pyridazine] here?
Answer: 55 to 58 °C

Question: With `CCc1ccc2c(-c3cccc(Cl)c3)c(CCCCC(=O)NC)c(-c3ccccc3)nn12` [Example 280, 5-[4-(3-Chlorophenyl)-7-ethyl-2-phenylpyrrolo[1,2-b]pyridazin-3-yl]-N-methylpentanamide] as the compound, how does the melting point read?
Answer: 70 to 72 °C

Question: Which melting point does the source give for `CCc1ccc2c(-c3cccc(C#N)c3)c(CCCCC(=O)N3CCOCC3)c(-c3ccccc3)nn12` [Example 282, 3-{7-Ethyl-3-[5-(4-morpholinyl)-5-oxopentyl]-2-phenylpyrrolo[1,2-b]pyridazin-4-yl}benzonitrile] here?
Answer: 66 to 69 °C

Question: Which melting point does the source give for `CCc1ccc2c(-c3cncc(Br)c3)c(CCC(=O)N3CCOCC3)c(C)nn12` [Example 388, 4-(5-bromo-3-pyridinyl)-7-ethyl-2-methyl-3-[3-(4-morpholinyl)-3-oxopropyl]pyrrolo[1,2-b]pyridazine] here?
Answer: 178 to 180 °C

Question: Which melting point does the source give for `CCc1ccc2c(-c3cncc(Br)c3)c(CCC(=O)NC)c(C)nn12` [Example 389, 3-[4-(5-bromo-3-pyridinyl)-7-ethyl-2-methylpyrrolo[1,2-b]pyridazin-3-yl]-N-methylpropanamide] here?
Answer: 172 to 174 °C

Question: For `CCc1ccc2c(-c3cncc(Br)c3)c(CCC(=O)NS(C)(=O)=O)c(C)nn12` [Example 390, N-{3-[4-(5-bromo-3-pyridinyl)-7-ethyl-2-methylpyrrolo[1,2-b]pyridazin-3-yl]propanoyl}methanesulfonamide], which melting point is on record?
Answer: 196.5 to 197.5 °C

Question: For `CCc1ccc2c(-c3cncc(Br)c3)c(C(=O)OC)c(COC(C)=O)nn12` [Example 429, methyl 2-[(acetyloxy)methyl]-4-(5-bromo-3-pyridinyl)-7-ethylpyrrolo[1,2-b]pyridazine-3-carboxylate], which melting point is on record?
Answer: 122 to 123 °C

Question: For `CCc1ccc2c(-c3cncc(OC)c3)c(CCCCC(=O)O)c(COC)nn12` [Example 496, 5-[7-ethyl-2-(methoxymethyl)-4-(5-methoxy-3-pyridinyl)pyrrolo[1,2-b]pyridazin-3-yl]pentanoic acid], which melting point is on record?
Answer: 111 to 112 °C

Question: With `CCc1ccc2c(-c3cncc(OC)c3)c(CCC(=O)O)c(COC)nn12` [Example 498, 3-[7-ethyl-2-(methoxymethyl)-4-(5-methoxy-3-pyridinyl)pyrrolo[1,2-b]pyridazin-3-yl]propanoic acid] as the compound, how does the melting point read?
Answer: 164 to 165 °C

Question: Which melting point does the source give for `CCc1ccc2c(-c3cncc(OC)c3)c(CCCC(=O)O)c(COC)nn12` [Example 499, 4-[7-ethyl-2-(methoxymethyl)-4-(5-methoxy-3-pyridinyl)pyrrolo[1,2-b]pyridazin-3-yl]butanoic acid] here?
Answer: 140 to 141 °C

Question: Which melting point does the source give for `CCc1ccc2c(-c3cncc(Cl)c3)c(CCCC(=O)O)c(COC)nn12` [Example 501, 4-[4-(5-chloro-3-pyridinyl)-7-ethyl-2-(methoxymethyl)pyrrolo[1,2-b]pyridazin-3-yl]butanoic acid] here?
Answer: 112 to 113 °C

Question: For `CCc1ccc2c(-c3cncc(Cl)c3)c(CCC(=O)O)c(COC)nn12` [Example 502, 3-[4-(5-chloro-3-pyridinyl)-7-ethyl-2-(methoxymethyl)pyrrolo[1,2-b]pyridazin-3-yl]propanoic acid], which melting point is on record?
Answer: 159 to 160 °C

Question: For `CCc1ccc2c(-c3cncc(Cl)c3)c(CCCCC(=O)O)c(COC)nn12` [Example 503, 5-[4-(5-chloro-3-pyridinyl)-7-ethyl-2-(methoxymethyl)pyrrolo[1,2-b]pyridazin-3-yl]pentanoic acid], which melting point is on record?
Answer: 118 to 119 °C

Molecular target: U937 Phosphodiesterase IV (PDE IV)
Assay: Inhibition of U937 Phosphodiesterase IV (PDE IV)
Format: biochemical
Details: enzyme preparation from U937 cells, [3H]cAMP SPA assay, CI-930 10 μM added, 30° C. 15 minutes; read-out: IC50, inhibitory activity on PDE-IV
Protocol: (a) Inhibition of U937 Phosphodiesterase IV (PDE IV)
Cultured U937 cells were washed twice and harvested with phosphate-buffered saline (PBS) by cell-scraper. After centrifugation, the cell pellet was suspended in homogenizing buffer (0.5% deoxycholate [DOC], 5 mM 2-mercaptoethanol, 1 μM leupeptin, 100 μM PMSF, 20 μM p-tosyl-L-lysine-chloromethyl ketone [TLCK] in PBS). The cell suspension was then sonicated for a couple of minutes and homogenized by a glass-Teflon homogenizer with twenty strokes. The homogenate was centrifuged at 200 g for 30 minutes, and the supernatant was further ultra-centrifuged at 100,000×g for 90 minutes (4° C.). […]
PDE4, activity was estimated with a Phosphodiesterase [^3H]cAMP SPA Enzyme Assay System (Amersham Pharmacia Biotech), using a 96 well Opti-plate. […] Radio-activity in each well was counted by a Top Counter. […]
IC50 values of test compounds for the enzyme activity of PDE4 was determined from regression analysis for log-logit conversion values of percent inhibition in the compound-treated tubes compared to that of the control. Percent inhibition was calculated with the following equation: Inhibition (%)={1−(C−B)/(A−B)}×100; in which A, B and C means mean values of radio-activity counts (dpm) of control, blank and the compound-treated tubes, respectively.

Question: With `CCc1ccc2c(-c3ccc(C(N)=O)cc3)c(CCCCCC(=O)O)c(C)nn12` [Example 198, 6-{4-[4-(Aminocarbonyl)phenyl]-7-ethyl-2-methylpyrrolo[1,2-b]pyridazin-3-yl}hexanoic acid] as the compound, how does the IC50 read?
Answer: < 1000 nM

Tested on: TNF-alpha production in LPS stimulated human peripheral blood mononuclear cells (PBMCs)
Assay: Inhibition on TNF-alpha Production in Human Mononuclear Cells
Format: cell-based
Details: PBMC, LPS 1 μg/mL, 24 hours, TNF-alpha by ELISA, read-out: IC50, TNF-alpha production from stimulated PBMCs
Protocol: (b) Inhibition on TNF-alpha Production in Human Mononuclear Cells 1. Test Method (1) Human Peripheral Blood Mononuclear Cells (PBMCs) Preparation
Blood (30 ml for each person) was collected from the median cubital vein of healthy volunteer was divided 15 mL each in heparin containing conical tube and the same volume of RPMI1640 was added to each tube. Diluted blood was then piled up to 20 mL of Ficoll-Paque PLUS (Amersham Pharmacia Biotech) in polystyrene centrifuge tube. After centrifugation at 1,600 rpm for 30 minutes, cells gathering in the center area of the gradient were collected by capillary and washed with 40 mL of RPMI1640 in several times with centrifugation at 1,200 rpm for 10 minutes. PBMC finally precipitated were suspended in RPMI1640 containing 1% fetal bovine serum and antibiotics. After cell counting, final suspension at 3×10^6 cells/mL in culture medium was prepared.
Human PBMCs prepared by the density gradient method using Ficoll-Paque PLUS were suspended in the culture medium mentioned above with the concentration of 3×10^6 cells/mL and 0.5 mL of the suspension was sowed into each well of a 24-well culture plate. Cells were incubated in the CO2 incubator for 24 hours with 0.25 mL of LPS in addition of 0.25 mL of concentrations of drugs or vehicle at the start of the incubation. […] TNF-alpha levels in the medium were measured by ELISA. […]

Question: With `CCc1ccc2c(-c3ccc(C(N)=O)cc3)c(CCCCCC(=O)O)c(C)nn12` [Example 198, 6-{4-[4-(Aminocarbonyl)phenyl]-7-ethyl-2-methylpyrrolo[1,2-b]pyridazin-3-yl}hexanoic acid] as the compound, how does the IC50 read?
Answer: < 100 nM
